PubChem BioAssay (NCI)
“And” between values parts separate entries of the source, which are not always exact repeats. Equal entries are not always repeated.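 1) Cells in 96-well plates. 2) Compound, 48 h, 5 concentrations. 3) Linear interpolation between surrounding doses. 4) Unreached endpoint = highest concentration. The concentration for 50% growth inhibition is given as GI50. TGI denotes the concentration required for complete inhibition of growth.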

Legend:
Test in all cases: DTP human tumour cell line panel, 48 h
ACHN renal = test system: ACHN renal
HCC-2998 colon = test system: HCC-2998 colon
HOP-92 NSCLC = test system: HOP-92 NSCLC
M14 melanoma = test system: M14 melanoma
OVCAR-5 ovarian = test system: OVCAR-5 ovarian
SF-295 CNS = test system: SF-295 CNS
SK-MEL-28 melanoma = test system: SK-MEL-28 melanoma
UACC-62 melanoma = test system: UACC-62 melanoma
BT-549 breast = test system: BT-549 breast
NCI/ADR-RES ovarian = test system: NCI/ADR-RES ovarian

| Compound | TGI (ACHN renal) [µM] | TGI (HCC-2998 colon) [µM] | TGI (HOP-92 NSCLC) [µM] | TGI (M14 melanoma) [µM] | TGI (OVCAR-5 ovarian) [µM] | TGI (SF-295 CNS) [µM] | TGI (SK-MEL-28 melanoma) [µM] | TGI (UACC-62 melanoma) [µM] | GI50 (ACHN renal) [µM] | GI50 (HCC-2998 colon) [µM] | GI50 (HOP-92 NSCLC) | GI50 (M14 melanoma) [µM] | GI50 (OVCAR-5 ovarian) [µM] | GI50 (SF-295 CNS) | GI50 (SK-MEL-28 melanoma) [µM] | GI50 (UACC-62 melanoma) [µM] | TGI (BT-549 breast) [µM] | GI50 (NCI/ADR-RES ovarian) [µM] | TGI (NCI/ADR-RES ovarian) [µM] |
| --- | --- | --- | --- | --- | --- | --- | --- | --- | --- | --- | --- | --- | --- | --- | --- | --- | --- | --- | --- |
| CN(C)CCC(/C=C/c1ccccc1)=N\Nc1ccc(Cl)cc1 | 5.15 | 3.53 | 8.82 | 12.5 | 2.89 | 13.1 | 27.2 | 4.95 | – | – | – | – | – | – | – | – | – | – | – |
| COc1ccc(C(=O)C/C(=N/NC(N)=S)C(=O)Nc2ccccc2)cc1 | > 100 | > 100 | – | > 100 | > 100 | > 100 | > 100 | > 100 | – | – | – | – | – | – | – | – | – | – | – |
| C[CH2][Ge]([CH2]C)([CH2]C)[O]C(=O)C([O][Ge]([CH2]C)([CH2]C)[CH2]C)c1ccccc1 (stereo not given) | 51.3 | 38.5 | 45.9 | 44.2 | 74.1 | 41 | > 100 | 30.7 | 15 | 19.2 | 4.32 µM | 17.1 | 16.3 | 14.5 µM | 24.6 | 14.5 | – | – | – |
| CCP(C)(C)=O | > 100 | > 100 | – | > 100 | > 100 | > 100 | > 100 | > 100 | – | – | – | – | – | – | – | – | – | – | – |
| CC(C)(C)c1cc(-c2c3nc(c(-c4cc(C(C)(C)C)cc(C(C)(C)C)c4)c4ccc([nH]4)c(-c4cc(C(C)(C)C)cc(C(C)(C)C)c4)c4nc(c(-c5cc(C(C)(C)C)cc(C(C)(C)C)c5)c5ccc2[nH]5)C=C4)C=C3)cc(C(C)(C)C)c1 | > 100 | > 100 | > 100 | > 100 | > 100 | > 100 | > 100 | > 100 | – | – | – | – | – | – | – | – | – | – | – |
| CCOC(=O)C1=C(C)N(NC(=O)OC)C2(N)N(NC(=O)OC)C(C)=C(C(=O)OCC)C12C#N (stereo not given) | > 100 | > 100 | – | > 100 | > 100 | > 100 | > 100 | > 100 | – | – | – | – | – | – | – | – | – | – | – |
| Cc1ccccc1NC(=O)C(=O)CC(=O)C1CCOC1=O (stereo not given) | > 100 | > 100 | > 100 | > 100 | > 100 | > 100 | > 100 | > 100 | – | – | – | – | – | – | – | – | – | – | – |
| NC1=NCC(c2ccccn2)C1c1ccc(F)cc1 (stereo not given) | > 100 | > 100 | > 100 | > 100 | > 100 | > 100 | > 100 | > 100 | – | – | – | – | – | – | – | – | – | – | – |
| C/C(=C1/N=C(c2ccccc2)OC1=O)c1ccccc1 | > 100 | > 100 | > 100 | > 100 | > 100 | > 100 | > 100 | > 100 | – | – | – | – | – | – | – | – | > 100 | – | – |
| Cc1nc2ccccc2c(/C=C/c2ccccc2)c1C(=O)/C=C/c1ccc(Cl)cc1 | – | 3.35 | – | – | – | – | – | 3.25 | – | 1.81 | – | – | – | – | – | 1.5 | – | 1.81 | 4.88 |
| CC1(C)Cc2nnsc2C2=C1C(=O)CCS2 | > 100 | > 100 | > 100 | > 100 | > 100 | > 100 | > 100 | > 100 | – | – | – | – | – | – | – | – | – | – | – |
| NC(=NCCO)c1ccc(N2CCCN(c3ccc(C(N)=NCCO)cc3)CC2)cc1 | > 100 | > 100 | – | > 100 | > 100 | > 100 | > 100 | > 100 | > 100 | > 100 | – | > 100 | > 100 | > 100 µM | > 100 | > 100 | – | > 100 | > 100 |
| O=C([CH-]C(=O)c1ccccc1)c1ccccc1.[CH3-].[CH3-].[CH3-].[Sn+4] | > 100 | 47.5 | 67.3 | 29.5 | 86.5 | 31.5 | 47.1 | 65.8 | 21 | 18.7 | 27.8 µM | 14.7 | 37.2 | 6.68 µM | 15.6 | 12.2 | – | – | – |
| CC(=O)Oc1ccccc1C(=O)NCCC[Se]C#N | 4.3 | 14.9 | 3.05 | 5.38 | 6.91 | 3.67 | 4.82 | – | 2.29 | 3.54 | 1.49 µM | 1.82 | 2.78 | 1.89 µM | 1.89 | – | – | – | – |
| C/C(CC(=O)Nc1ccccc1)=N\NC(N)=S | – | > 100 | > 100 | > 100 | > 100 | > 100 | > 100 | > 100 | – | – | – | – | – | – | – | – | – | – | – |
| COc1ccc(/C(=C\c2cc(OC)c(OC)c(OC)c2)C(=O)O)cc1 | > 100 | – | > 100 | > 100 | – | 45.5 | > 100 | > 100 | – | – | – | – | – | – | – | – | – | – | – |

| Compound | TGI (ACHN renal) [µM] | TGI (HCC-2998 colon) [µM] | TGI (HOP-92 NSCLC) [µM] | TGI (M14 melanoma) [µM] | TGI (OVCAR-5 ovarian) [µM] | TGI (SF-295 CNS) [µM] | TGI (SK-MEL-28 melanoma) [µM] | TGI (UACC-62 melanoma) [µM] | GI50 (ACHN renal) [µM] | GI50 (HCC-2998 colon) [µM] | GI50 (HOP-92 NSCLC) | GI50 (M14 melanoma) [µM] | GI50 (OVCAR-5 ovarian) [µM] | GI50 (SF-295 CNS) | GI50 (SK-MEL-28 melanoma) [µM] | GI50 (UACC-62 melanoma) [µM] | TGI (BT-549 breast) [µM] | GI50 (NCI/ADR-RES ovarian) [µM] | TGI (NCI/ADR-RES ovarian) [µM] |
| --- | --- | --- | --- | --- | --- | --- | --- | --- | --- | --- | --- | --- | --- | --- | --- | --- | --- | --- | --- |
| Cc1cc(Cl)ccc1N1C(=O)C(=O)C(c2nc3ccccc3o2)C(=O)C1=O | > 100 | > 100 | > 100 | > 100 | – | > 100 | > 100 | > 100 | – | – | – | – | – | – | – | – | – | – | – |
| O=C1[C@@H]2C(c3ccncc3)=NO[C@@H]2C(=O)N1c1ccc(Cc2ccc(N3C(=O)[C@H]4C(c5ccncc5)=NO[C@H]4C3=O)cc2)cc1 | > 100 | > 100 | > 100 | > 100 | > 100 | > 100 | > 100 | > 100 | – | – | – | – | – | – | – | – | – | – | – |
| CC(=O)OCC1OC(n2c(=S)n(-c3ccccc3)c(=O)c3cc(Br)ccc32)C(OC(C)=O)C(OC(C)=O)C1OC(C)=O (stereo not given) | > 100 | > 100 | > 100 | > 100 | > 100 | > 100 | > 100 | > 100 | – | – | 22.1 µM and > 100 µM | – | – | 46.5 µM and > 100 µM | – | – | – | – | – |
| COC(=O)c1ccc(NC(N)=NCC(C)(C)COc2ccc(C(F)(F)F)cc2)nc1 | 2.93 | – | 2.57 | – | 3.08 | 3.04 | 3.08 | 3.1 | 1.59 | – | 1.23 µM | – | 1.6 | 1.61 µM | 1.64 | 1.66 | – | 1.68 | 3.34 |
| O=C(Nc1ccccc1[N+](=O)[O-])C(=O)C(C(=O)c1ccccc1-c1ccccc1)C1OC(=O)c2ccccc21 (stereo not given) | > 100 | 28.2 | – | 28.9 | 36.8 | 39.3 | 37.7 | 32.8 | – | – | – | – | – | – | – | – | – | – | – |
| C=CCN(N=O)C(=O)N(CCCCC(NC(C)=O)C(=O)NCc1ccccc1)Cc1ccccc1 (stereo not given) | > 100 | – | 57.3 | 62.4 | > 100 | > 100 | > 100 | > 100 | – | – | – | – | – | – | – | – | – | – | – |
| COC(=O)[C@@H]1[C@H](O)[C@H](C)[C@H](O)[C@H](C)/C=C\C=C(C)C(=O)Nc2c(C)c(OC(C)=O)c3c(c2O)C(=O)C(C)=C2OCOC(=C23)C(C)=C[C@@](C)(O)[C@H](O)[C@@H](C)[C@H]1OC(C)=O | > 100 | – | > 100 | > 100 | > 100 | > 100 | > 100 | – | – | – | – | – | – | – | – | – | > 100 | – | – |
| CC1NCCc2c1[nH]c1cc(O)ccc21 (stereo not given) | > 100 | > 100 | > 100 | > 100 | > 100 | > 100 | > 100 | > 100 | – | – | – | – | – | – | – | – | – | – | – |
| O=C(Nc1cc(C(F)(F)F)cc(C(F)(F)F)c1)Nc1ccc(OCc2nnc(-c3ccc(Cl)cc3)o2)c(F)c1 | 9.2 | 12 | 4.06 | 11.1 | 13.7 | 6.91 | 15.1 | 11.6 | 0.873 | 3.12 | 1.14 µM | 2.72 | 2.76 | 1.14 µM | 3.3 | 1.79 | – | 1.85 | 7.91 |
| Cc1nnc2n1N=C(c1ccc(-c3ccc([N+](=O)[O-])cc3)o1)CS2 | > 100 | > 100 | > 100 | > 100 | > 100 | > 100 | > 100 | > 100 | – | – | – | – | – | – | – | – | – | – | – |
| CN(C)CCC(=O)N1CCc2c([nH]c3ccccc23)C1c1cccnc1 (stereo not given) | > 100 | > 100 | > 100 | > 100 | > 100 | > 100 | > 100 | > 100 | – | – | – | – | – | – | – | – | – | – | – |
| OCCSCC/C(=N\N=C(/CCSCCO)c1ccccc1)c1ccccc1 | > 100 | > 100 | > 100 | > 100 | > 100 | > 100 | > 100 | > 100 | – | – | – | – | – | – | – | – | – | – | – |
| C/C=C/C=C/CCCCCCCCCCCCC[C@]1(OC)C=CC(CC(=O)OC)OO1 (stereo not given in full) | 31.4 | 47.9 | – | 31.9 | – | 34.3 | 36.1 | 29.8 | 16.6 | 24.3 | – | – | – | 18.5 µM | – | – | – | – | – |
| Cc1cccc2cc3cccc(C(=O)NCCN(C)C)c3nc12 | – | 1.48 | 1.38 | 2.43 | 1.63 | 1.74 | 2.21 | 0.386 | – | – | – | – | – | – | – | – | – | – | – |
| Cc1cc(Cl)cc2c1NC(=O)C2(O)CC(=O)c1ccc(F)cc1 (stereo not given) | > 100 | > 100 | > 100 | > 100 | > 100 | > 100 | > 100 | 42 | – | – | – | – | – | – | – | – | – | – | – |
